Assay results as given in ChEMBL document CHEMBL1131911, “Synthesis of 2-(2-adamantyl)piperidines and structure anti-influenza virus A activity relationship study using a combination of NMR spectroscopy and molecular modeling” (1999).
In brackets after ≈: the same amount, converted by molar mass.

How the values were obtained:
MDCK [1] = experiment: Anti-influenza virus activity was evaluated in Madin-Darby canine kidney (MDCK) cells against influenza A H2N2 strain (A2 Japan/305/57); assay type: functional; details: Canis lupus familiaris
MDCK [2] = experiment: Anti-influenza virus activity was evaluated in Madin-Darby canine kidney (MDCK) cells against influenza A H3N2 (X31); assay type: functional; details: Canis lupus familiaris
MDCK [3] = experiment: Anti-influenza virus activity was evaluated in Madin-Darby canine kidney (MDCK) cells against influenza B (Hong Kong/5/72); assay type: functional; details: Canis lupus familiaris
MDCK [4] = experiment: Concentration required to reduce the viability of MDCK cells; assay type: functional, Canis lupus familiaris

Question: For `CC(N)C12CC3CC(CC(C3)C1)C2` (stereo unspecified) [RIMANTADINE], which MIC50 (MDCK [1]) is on record?
Answer: 20.9 µM (≈ 3.75 µg/mL)

Question: And the MIC50 (MDCK [2])?
Answer: > 56 µM

Question: What about the MIC50 (MDCK [3]) of the same molecule?
Answer: > 93 µM

Question: What about the MTC50 (MDCK [4]) of the same molecule?
Answer: 1160 µM

Question: What does the source list for `CN1CCCCC1C1C2CC3CC(C2)CC1C3` (stereo unspecified)?
Answer: MIC50 (MDCK [1]): > 143 µM; MIC50 (MDCK [2]): > 143 µM; MIC50 (MDCK [3]): > 143 µM; MTC50 (MDCK [4]): 977 µM

Question: Which MIC50 (MDCK [1]) does the source give for `CCN1CCCCC1C1C2CC3CC(C2)CC1C3` (stereo unspecified) here?
Answer: > 28 µM

Question: And the MIC50 (MDCK [2])?
Answer: > 28 µM

Question: What about the MIC50 (MDCK [3]) of the same molecule?
Answer: > 28 µM

Question: And the MTC50 (MDCK [4])?
Answer: 143 µM

Question: What does the source list for `C1CCN(CC2CC2)C(C2C3CC4CC(C3)CC2C4)C1` (stereo unspecified)?
Answer: MIC50 (MDCK [1]): 143 µM (≈ 39.1 µg/mL); MIC50 (MDCK [2]): > 143 µM; MIC50 (MDCK [3]): > 143 µM; MTC50 (MDCK [4]): 977 µM

Question: With `NC12CC3CC(CC(C3)C1)C2` [AMANTADINE] as the molecule, how does the MIC50 (MDCK [1]) read?
Answer: 28.3 µM (≈ 4.28 µg/mL)

Question: What about the MTC50 (MDCK [4]) of the same molecule?
Answer: 1333 µM

Question: For `C1CCC(C2C3CC4CC(C3)CC2C4)NC1` (stereo unspecified), which MIC50 (MDCK [1]) is on record?
Answer: 7.8 µM (≈ 1.71 µg/mL)

Question: And the MIC50 (MDCK [2])?
Answer: > 977 µM

Question: What about the MIC50 (MDCK [3]) of the same molecule?
Answer: > 977 µM

Question: And the MTC50 (MDCK [4])?
Answer: >977 µM

Question: `NC(=O)c1ncn([C@@H]2O[C@H](CO)[C@@H](O)[C@H]2O)n1` [RIBAVIRIN] was tested. Which MIC50 (MDCK [1]) did it give?
Answer: 31.1 µM (≈ 7.59 µg/mL)

Question: What about the MIC50 (MDCK [2]) of the same molecule?
Answer: 41 µM (≈ 10 µg/mL)

Question: And the MIC50 (MDCK [3])?
Answer: 41 µM (≈ 10 µg/mL)

Question: What about the MTC50 (MDCK [4]) of the same molecule?
Answer: >1025 µM
